Experiment: Resistance of high purity ethyl lactate to peroxide formation in air (Quantofix test paper)
Type: physicochemical
Conditions: for level of peroxide: 250 ml ethyl lactate + 0.3 g agent, stirred in air
Experimental: In the procedure used, 250 ml of high purity ethyl lactate containing 0.0 ppm of peroxide as measured with Quantofix™ test paper was added to each of four beakers. The first beaker served as a control and was not treated with any chemical agent. The second beaker was treated with 0.3 g of BHT. The third beaker was treated with 0.3 g of cysteine and the fourth beaker was treated with 0.3 g of methionine. […] The level of peroxide in each of the ethyl lactate samples was monitored and is reported as a function of time in Table 2.

| SMILES | level of peroxide (time 0 minutes) [ppm] | level of peroxide (time 15 minutes) [ppm] | level of peroxide (time 30 minutes) [ppm] | level of peroxide (time 60 minutes) [ppm] | level of peroxide (time 75 minutes) | level of peroxide (time 90 minutes) | level of peroxide (time 105 minutes) [ppm] | level of peroxide (time 120 minutes) [ppm] | level of peroxide (time 150 minutes) [ppm] | level of peroxide (time 180 minutes) [ppm] | level of peroxide (time 240 minutes) | level of peroxide (time 300 minutes) [ppm] | level of peroxide (time 360 minutes) [ppm] | level of peroxide (time 1440 minutes) | effectiveness as stabilizer against peroxide generation (compared with the other compounds evaluated) | Gardner color rating (ethyl lactate stabilized with BHT, throughout the trial period) |
| --- | --- | --- | --- | --- | --- | --- | --- | --- | --- | --- | --- | --- | --- | --- | --- | --- |
| Cc1cc(C(C)(C)C)c(O)c(C(C)(C)C)c1 [BHT, butylated hydroxyl toluene] | 0.0 | 0.0 | 0.0 | 0.0 | 0.0 ppm | 0.0 ppm | 0.0 | 0.0 | 0.0 | 0.0 | 0.0 ppm | 0.0 | 0.0 | 0.0 ppm | most effective | 1 |
| N[C@@H](CS)C(=O)O [Cysteine, cysteine] | 0.0 | 0.0 | 0.0 | 0.0 | 0.0 ppm | 0.0 ppm | 0.0 | 0.0 | 0.0 | 0.0 | 0.0 ppm | 0.0 | 0.0 | 0.0-0.5 ppm |  |  |
| CSCC[C@H](N)C(=O)O [Methionine, methionine] | 0.0 | 0.0 | 0.0 | 0.5 | 0.5-2.0 ppm | 0.5-2.0 ppm | 2.0 | 2.0 | 2.0 | 5.0 | 2.0-5.0 ppm | 5.0 | 5.0 | 5.0 ppm |  |  |
